Reference: patent US8178506B2, “Oligomeric compounds and compositions for use in modulation of small non-coding RNAs” (Regulus Therapeutics Inc., priority 2003, dated 2012)
In the oligonucleotide strings, read from the 5' end, every base follows the letter of its sugar. An asterisk marks phosphorothioate; unmarked linkages are phosphodiester. Other units and linkages are bracketed, terminal groups are in braces. A string of capitals states the bases alone. e = 2'-O-(2-methoxyethyl) (MOE); [5mC] = 5-methylcytosine; d = 2'-deoxy (DNA)

Experiments:
T47D cells = assay: Caspase-3 activity assay (apoptosis) in T47D cells; conditions: for apoptosis in T47D cells: caspase assay, conclusion from Tables 9-12; for Fold Increase over UTC (caspase-3 activity, apoptosis): 200 nM oligomeric compound
HeLa cells = assay: Cell cycle assay in HeLa cells; assay type: cell-based, human; conditions: HeLa cells, 150 nM oligomeric compound
[1] = 24 hours, relative to untreated control (UTC = 100)
[2] = 48 hours after treatment, relative to untreated control (UTC=100)
[3] = T47D cells, 48 hours, experiment of Table 10

“SEQ ID NO 541: gapmer of Tables 9-12 having this SEQ ID NO (eG*eA*eG*e[5mC]*eA*dT*dG*d[5mC]*dA*dA*d[5mC]*dA*d[5mC]*dT*d[5mC]*eT*eG*eT*eG*e[5mC])” was tested. Which “apoptosis in T47D cells” value (T47D cells; 200 nM) did it give?
Its value is “prevent or have a protective effect from apoptosis”.

For “328378 (e[5mC]*eA*e[5mC]*e[5mC]*e[5mC]*dT*d[5mC]*d[5mC]*dA*dG*dT*dG*d[5mC]*dT*dG*eT*eT*eA*eG*eT; antisense) [compound 328378]”, which “Fold Increase over UTC (caspase activity)” value (T47D cells; T47D cells, 200 nM, 48 hours, relative to untreated control) is on record?
The value was 1.0.

With “328374 (eA*eG*e[5mC]*eT*eT*dT*dA*dG*d[5mC]*dT*dG*dG*dG*dT*d[5mC]*eA*eG*eG*eA*e[5mC]; antisense) [compound 328374]” as the substance, how does the “% cells aneuploid” value (HeLa cells; [1]) read?
The value was 97%.

And the “% cells in cell cycle phase G1” value (HeLa cells; [1])?
The value was 54%.

What about the “% cells in cell cycle phase G2/M” value (HeLa cells; [1]) of the same substance?
Its value is 162%.

What about the “% cells in cell cycle phase S” value (HeLa cells; [1]) of the same substance?
The value was 115%.

What about the “% cells in cell cycle phase subG1” value (HeLa cells; [1]) of the same substance?
The value was 198%.

And the “% cells in cell cycle phase: G1” value (HeLa cells; [2])?
The value was 65%.

And the “% cells in cell cycle phase: G2/M” value (HeLa cells; [2])?
Its value is 143%.

What about the “% cells in cell cycle phase: S” value (HeLa cells; [2]) of the same substance?
Its value is 157%.

What about the “% cells in cell cycle phase: aneuploid” value (HeLa cells; [2]) of the same substance?
Its value is 71%.

What about the “% cells in cell cycle phase: subG1” value (HeLa cells; [2]) of the same substance?
The value was 787%.

And the “Fold Increase over UTC (caspase-3 activity, apoptosis)” value (T47D cells; T47D cells, 48 hours, experiment of Table 11)?
The value was 1.1 fold.

With “SEQ ID NO 518: gapmer of Tables 9-12 having this SEQ ID NO (antisense eG*e[5mC]*eT*eA*eG*dT*dG*dA*d[5mC]*dA*dG*dG*dT*dG*d[5mC]*eA*eG*eA*e[5mC]*eA)” as the substance, how does the “apoptosis in T47D cells” value (T47D cells; 200 nM) read?
Its value is “prevent or have a protective effect from apoptosis”.

For “328646 (eG*e[5mC]*eT*eT*eT*dT*dA*dG*dA*dA*d[5mC]*d[5mC]*dA*d[5mC]*dT*eG*e[5mC]*e[5mC]*eT*e[5mC]; antisense) [compound 328646]”, which “Fold Increase over UTC (caspase-3 activity, apoptosis)” value (T47D cells; [3]) is on record?
Its value is 1.1 fold.

“328401 (antisense eG*e[5mC]*e[5mC]*e[5mC]*eT*d[5mC]*dG*dA*d[5mC]*dG*dA*dA*dA*dA*d[5mC]*e[5mC]*eG*eA*e[5mC]*eT) [compound 328401]” was tested. Which “Fold Increase over UTC (caspase-3 activity, apoptosis)” value (T47D cells; T47D cells, 48 hours, experiment of Table 12) did it give?
Its value is 0.8 fold.

“GCTTTTAGAACCACTGCCTC (antisense; same sequence listed as MOE 5-10-5 gapmer and as uniform MOE, further chemistry not given here) [ISIS 328646]” was tested. Which “apoptosis in T47D cells” value (T47D cells; 200 nM) did it give?
The value was “induce apoptosis”.

“SEQ ID NO 502: gapmer of Tables 9-12 having this SEQ ID NO (antisense eG*e[5mC]*eT*eG*eG*d[5mC]*d[5mC]*dT*dG*dA*dT*dA*dG*d[5mC]*d[5mC]*e[5mC]*eT*eT*e[5mC]*eT)” was tested. Which “apoptosis in T47D cells” value (T47D cells; 200 nM) did it give?
The value was “induce apoptosis”.

For “GACAAGGTGGGAGCGAGTGG (antisense; same sequence listed as MOE 5-10-5 gapmer and as uniform MOE, further chemistry not given here) [ISIS 328644]”, which “apoptosis in T47D cells” value (T47D cells; 200 nM) is on record?
The value was “prevent or have a protective effect from apoptosis”.

“SEQ ID NO 519: gapmer of Tables 9-12 having this SEQ ID NO (antisense eG*eG*eG*e[5mC]*e[5mC]*dT*dA*dT*d[5mC]*d[5mC]*dA*dA*dA*dG*dT*eG*eA*e[5mC]*eA*eG)” was tested. Which “apoptosis in T47D cells” value (T47D cells; 200 nM) did it give?
The value was “induce apoptosis”.

How did the “Fold Increase over UTC (caspase-3 activity, apoptosis)” value (T47D cells; [3]) turn out when “328375 (eT*eA*e[5mC]*e[5mC]*eA*dT*dA*d[5mC]*dA*dG*dA*dA*dA*d[5mC]*dA*e[5mC]*eA*eG*e[5mC]*eA; antisense) [compound 328375]” was run?
The value was 0.9 fold.

“328696 (e[5mC]*eT*e[5mC]*eT*eA*dG*d[5mC]*dT*d[5mC]*d[5mC]*d[5mC]*dT*d[5mC]*dA*d[5mC]*e[5mC]*eA*eG*eT*eG; antisense) [compound 328696]” was tested. Which “Fold Increase over UTC (caspase-3 activity, apoptosis)” value (T47D cells; [3]) did it give?
Its value is 1.5 fold.
